# Measurements from patent publication US7741479B2, “Urea inhibitors of MAP kinases” (Locus Pharmaceuticals, Inc., priority 2004, dated 2010).
# Biological target: T1, p38 (Homo sapiens, UniProt Q16539)
# T1 construct: made in house
# Assay: Protein Kinase Assay (33P incorporation from γ-[33P]ATP into GST-ATF-2 substrate)
# Assay type: biochemical
# Details: compound at 3 μM (noted beside the value in Table 1); read-out: Protein Kinase (% Inhibition)
# Description: Human non-activated p38 kinase (MW=43 kDa) was purified according to the protocol described herein. Chemicals were purchased from Calbiochem. Fluorescence characterizations were conducted using a Cary Eclipse (Varian Analytical Instruments, Walnut Creek, Calif.). Research-grade CM5 sensor chips and coupling reagents (N-ethyl-N′-dimethylaminopropylcarbodiimide (EDC) N-hydroxysuccinimide (NHS), and 1 M ethanolamine HCl, pH 8.5) were purchased from Biacore AB (Uppsala, Sweden). The biosensor analyses were conducted using a Biacore 3000 SPR instrument. The kinetic analyses were carried on a Molecular Devices spectrophotometer (Molecular Devices Corporation, CA, USA).
# Protein Kinase Assay. The protein kinase activity of p38 was determined by measuring the incorporation of ^33P from γ-[^33P]ATP into the GST-ATF-2 substrate, amino acids 19-96 (Upstate, NY USA). […] Compounds were preincubated with 10 nM p38 for 20 min at 30° C.; the reactions were initiated by the addition of GST-ATF2 and ATP and incubated for 70 min at 30° C. before being stopped by the addition of 10 μL of 600 mM phosphoric acid. The phosphorylated substrate was captured on phosphocellulose 96-well plate (Millipore MAPHNOB 10), washed with 100 mM phosphoric acid, and counted in a BeckmenCoulter LS6500 liquid scintillation counter.
# T1 sequence (Q16539 whole entry): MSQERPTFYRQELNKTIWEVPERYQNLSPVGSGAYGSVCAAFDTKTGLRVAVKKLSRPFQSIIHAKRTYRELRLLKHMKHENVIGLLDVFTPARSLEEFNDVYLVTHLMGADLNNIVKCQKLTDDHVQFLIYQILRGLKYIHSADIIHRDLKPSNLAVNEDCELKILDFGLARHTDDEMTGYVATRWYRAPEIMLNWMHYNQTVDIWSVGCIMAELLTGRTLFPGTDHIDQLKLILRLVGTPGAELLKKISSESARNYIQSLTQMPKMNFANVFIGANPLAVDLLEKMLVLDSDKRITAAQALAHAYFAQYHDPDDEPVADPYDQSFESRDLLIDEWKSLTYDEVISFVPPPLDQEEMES
row,inhibition at 3 µM [%],Compound
1,51 to 75,"CC(C)(C)c1cc(C(=O)N2CCNS(=O)(=O)CC2)c(NC(=O)Nc2cccc3ccccc23)s1 [Example 37, 1-[5-tert-butyl-3-(1,1-dioxo-1λ^6-[1,2,5]thiadiazepane-5-carbonyl)thiophen-2-yl]-3-naphthalen-1-ylurea]"
2,76 to 100,"CC(C)(C)c1cc(C(=O)N2CCNS(=O)(=O)CC2)c(NC(=O)Nc2ccc3ccccc3c2)s1 [Example 38, 1-[5-tert-butyl-3-(1,1-dioxo-1λ^6-[1,2,5]thiadiazepane-5-carbonyl)thiophen-2-yl]-3-naphthalen-2-ylurea]"
3,76 to 100,"CC(C)(C)c1cc(C(=O)N2CCNS(=O)(=O)CC2)c(NC(=O)Nc2ccc(Cl)cc2)s1 [Example 39, 1-[5-tert-butyl-3-(1,1-dioxo-1λ^6-[1,2,5]thiadiazepane-5-carbonyl)thiophen-2-yl]-3-(4-chlorophenyl)urea]"
4,76 to 100,"CC(C)(C)c1cc(C(=O)N2CC[S@SP2](=O)(=O)CC2)c(NC(=O)Nc2ccc(Br)c3ccccc23)s1 [Example 40, 1-(4-Bromonaphthalen-1-yl)-3-[5-tert-butyl-3-(1,1-dioxo-1λ^6-thiomorpholine-4-carbonyl)thiophen-2-yl]urea]"
5,76 to 100,"CC(C)(C)c1cc(C(=O)N2CCS(=O)(=O)CC2)c(NC(=O)Nc2ccc(Cl)c3ccccc23)s1 [Example 41, 1-[5-tert-butyl-3-(1,1-dioxo-1λ^6-thiomorpholine-4-carbonyl)thiophen-2-yl]-3-(4-chloronaphthalen-1-yl)urea]"
6,76 to 100,"CC(C)(C)c1cc(C(=O)N2CCS(=O)(=O)CC2)c(NC(=O)Nc2cccc3nc[nH]c23)s1 [Example 42, 1-(3H-Benzimidazol-4-yl)-3-[5-tert-butyl-3-(1,1-dioxo-1λ^6-thiomorpholine-4-carbonyl)thiophen-2-yl]urea]"
7,76 to 100,"CC(C)(C)c1cc(C(=O)N2CCS(=O)(=O)CC2)c(NC(=O)Nc2ccc(C#N)c3ccccc23)s1 [Example 43, 1-[5-tert-butyl-3-(1,1-dioxo-1λ^6-thiomorpholine-4-carbonyl)thiophen-2-yl]-3-(4-cyanonaphthalen-1-yl)urea]"

# Same assay, conditions: compound at 3 μM; read-out: Protein Kinase (% Inhibition at 3 μM)
row,inhibition at 3 µM [%],Compound
1,76 to 100,"CC(C)(C)c1cc(C(=O)NCCS(C)(=O)=O)c(NC(=O)Nc2cccc3ccccc23)s1 [Example 45, 1-(3-(2-(Methylsulfonyl)ethylcarbamoyl)-5-tert-butylthiophen-2-yl)-3-(naphthalen-1-yl)urea]"
2,76 to 100,"CC(C)(C)c1cc(C(=O)N2CCNC(=O)CC2)c(NC(=O)Nc2ccc(Cl)cc2)s1 [Example 46, 1-[5-tert-butyl-3-(5-oxo-[1,4]diazepane-1-carbonyl)thiophen-2-yl]-3-(4-chloro-phenyl)urea]"
3,76 to 100,"CC(C)(C)c1cc(C(=O)N2CCNC(=O)C2)c(NC(=O)Nc2ccc(Cl)cc2)s1 [Example 47, 1-[5-tert-butyl-3-(3-oxopiperazine-1-carbonyl)thiophen-2-yl]-3-(4-chloro-phenyl)urea]"
4,51 to 75,"CC(C)(C)c1cc(C(=O)N2CCS(=O)(=O)CC2)c(NC(=O)Nc2c[nH]c3ccccc23)s1 [Example 49, 1-[5-tert-butyl-3-(1,1-dioxo-1λ^6-thiomorpholine-4-carbonyl)thiophen-2-yl]-3-(1H-indol-3-yl)urea]"
5,76 to 100,"CC(C)(C)c1cc(NC(=O)Nc2cccc3ccccc23)c(C(=O)N2CCNC(=O)CC2)s1 [Example 50, 1-[5-tert-butyl-2-(5-oxo-[1,4]diazepane-1-carbonyl)thiophen-3-yl]-3-naphthalen-1-ylurea]"
6,76 to 100,"CC(C)(C)c1cc(NC(=O)Nc2cccc3ccccc23)c(C(=O)N2CCNS(=O)(=O)CC2)s1 [Example 51, 1-[5-tert-butyl-2-(1,1-dioxo-1λ^6-[1,2,5]thiadiazepane-5-carbonyl)thiophen-3-yl]-3-naphthalen-1-ylurea]"
7,76 to 100,"CC(C)(C)c1cc(NC(=O)Nc2cccc3ccccc23)c(C(=O)N2CCNC(=O)C2)s1 [Example 52, 1-[5-tert-butyl-2-(3-oxopiperazine-1-carbonyl)thiophen-3-yl]-3-naphthalen-1-ylurea]"
8,76 to 100,"CC(C)(C)c1cc(C(=O)N2CCNC(=O)CC2)c(NC(=O)Nc2cccc(Cl)c2Cl)s1 [Example 53, 1-[5-tert-butyl-3-(5-oxo-[1,4]diazepane-1-carbonyl)thiophen-2-yl]-3-(2,3-dichlorophenyl)urea]"
9,76 to 100,"CC(C)(C)c1cc(C(=O)N2CCNC(=O)CC2)c(NC(=O)Nc2cccc(Cl)c2)s1 [Example 54, 1-[5-tert-butyl-3-(5-oxo-[1,4]diazepane-1-carbonyl)thiophen-2-yl]-3-(3-chlorophenyl)urea]"
10,76 to 100,"CC(C)(C)c1cc(C(=O)N2CCNC(=O)CC2)c(NC(=O)Nc2ccc(C#N)c3ccccc23)s1 [Example 55, 1-[5-tert-butyl-3-(5-oxo-[1,4]diazepane-1-carbonyl)thiophen-2-yl]-3-(4-cyanonaphthyl)urea]"
11,76 to 100,"CC(C)(C)c1cc(C(=O)N2CCNS(=O)(=O)CC2)c(NC(=O)Nc2ccc(C#N)c3ccccc23)s1 [Example 56, 1-[5-tert-butyl-3-(1,1-dioxo-1λ^6-[1,2,5]thiadiazepane-5-carbonyl)thiophen-2-yl]-3-(4-cyanonaphthalen-1-yl)urea]"
12,76 to 100,"CC(C)(C)c1cc(C(=O)N2CCNC(=O)C2)c(NC(=O)Nc2ccc(C#N)c3ccccc23)s1 [Example 57, 1-[5-tert-butyl-3-(3-oxopiperazine-1-carbonyl)thiophen-2-yl]-3-(4-cyano-naphthalen-1-yl)urea]"
13,76 to 100,"CC(C)(C)c1cc(C(=O)N2CCS(=O)(=O)CC2)c(NC(=O)Nc2cccc(Cl)c2Cl)s1 [Example 58, 1-[5-tert-butyl-3-(1,1-dioxo-1λ^6-thiomorpholine-4-carbonyl)thiophen-2-yl]-3-(2,3-dichlorophenyl)urea]"
14,76 to 100,"CC(C)(C)c1cc(C(=O)N2CCS(=O)(=O)CC2)c(NC(=O)Nc2cccc(Cl)c2)s1 [Example 59, 1-[5-tert-butyl-3-(1,1-dioxo-1λ^6-thiomorpholine-4-carbonyl)thiophen-2-yl]-3-(3-chlorophenyl)urea]"
15,76 to 100,"CC(C)(C)c1cc(C(=O)N2CCS(=O)(=O)CC2)c(NC(=O)Nc2ccc3c(c2)OCO3)s1 [Example 60, 1-Benzo[1,3]dioxol-5-yl-3-[5-tert-butyl-3-(1,1-dioxo-1λ^6-thiomorpholine-4-carbonyl)thiophen-2-yl]urea]"
16,76 to 100,"CC(C)(C)c1cc(C(=O)N2CCS(=O)(=O)CC2)c(NC(=O)Nc2ccc3c(c2)OC(F)(F)O3)s1 [Example 61, 1-[5-tert-butyl-3-(1,1-dioxo-1λ^6-thiomorpholine-4-carbonyl)thiophen-2-yl]-3-(2,2-difluorobenzo[1,3]dioxol-5-yl)urea]"
17,76 to 100,"COc1ccc(NC(=O)Nc2sc(C(C)(C)C)cc2C(=O)N2CCS(=O)(=O)CC2)cc1Cl [Example 62, 1-[5-tert-butyl-3-(1,1-dioxo-1λ^6-thiomorpholine-4-carbonyl)thiophen-2-yl]-3-(3-chloro-4-methoxyphenyl)urea]"
18,76 to 100,"CC(C)(C)c1cc(C(=O)N2CCS(=O)(=O)CC2)c(NC(=O)Nc2ccc(Cl)c(Cl)c2)s1 [Example 63, 1-[5-tert-butyl-3-(1,1-dioxo-1λ^6-thiomorpholine-4-carbonyl)thiophen-2-yl]-3-(3,4-dichlorophenyl)urea]"
19,0 to 25,"CC(C)(C)c1cc(C(=O)N2CCS(=O)(=O)CC2)c(NC(=O)NC(C)(C)c2ccccc2)s1 [Example 66, 1-[5-tert-butyl-3-(1,1-dioxo-1λ^6-thiomorpholine-4-carbonyl)thiophen-2-yl]-3-(1-methyl-1-phenylethyl)urea]"
20,76 to 100,"Cc1cccc(NC(=O)Nc2sc(C(C)(C)C)cc2C(=O)N2CCS(=O)(=O)CC2)c1 [Example 67, 1-[5-tert-butyl-3-(1,1-dioxo-1λ^6-thiomorpholine-4-carbonyl)thiophen-2-yl]-3-(3-tolyl)urea]"
21,76 to 100,"CC(C)(C)c1cc(C(=O)N2CCS(=O)(=O)CC2)c(NC(=O)Nc2cc(Cl)cc(Cl)c2)s1 [Example 68, 1-[5-tert-butyl-3-(1,1-dioxo-1λ^6-thiomorpholine-4-carbonyl)thiophen-2-yl]-3-(3,5-dichlorophenyl)urea]"

row,Compound,inhibition at 3 µM [%]
1,"CC(C)(C)c1cc(C(=O)N2CCS(=O)(=O)CC2)c(NC(=O)Nc2ccc(C#N)c(Cl)c2)s1 [Example 64, 1-[5-tert-butyl-3-(1,1-dioxo-1λ^6-thiomorpholine-4-carbonyl)thiophen-2-yl]-3-(3-chloro-4-cyanophenyl)urea]",51 to 75
2,"CC(C)(C)c1cc(C(=O)N2CCS(=O)(=O)CC2)c(NC(=O)Nc2ccc(C#N)c(C(F)(F)F)c2)s1 [Example 65, 1-[5-tert-butyl-3-(1,1-dioxo-1λ^6-thiomorpholine-4-carbonyl)thiophen-2-yl]-3-(4-cyano-3-trifluoromethylphenyl)urea]",26 to 50

# Same assay, conditions: compound at 10 μM
row,inhibition at 10 µM [%],Compound
1,76 to 100,"CC(C)(C)c1cc(C(=O)N2CCNC(=O)CC2)c(NC(=O)Nc2ccc3ccccc3c2)s1 [Example 44, 1-[5-tert-butyl-3-(5-oxo[1,4]diazepane-1-carbonyl)thiophen-2-yl]-3-naphthalen-2-ylurea]"
